# Assays:
# Assay type in all cases: cell-based, human
# SH-SY5Y neuronal cells = test: Annexin-V staining of apoptotic cells against MPP+ iodide damage; settings: MPP+ iodide 1 mM; for % Decrease in Apoptotic cells (wrt MPP + iodide): Annexin
# Procedure: After 24 h of treatment, cells were exposed to damage (MPP+ iodide 1 mM) for 24 h. […] Untreated cells were included as control. Cells treated with Deprenyl served as positive control. After treatment, cells were harvested by trypsinization and processed for Annexin V assay as follows: Cell were gently harvested into pre-labeled sterile centrifuge tubes and centrifuged at 300×g for 5-7 min. After 24 h of treatment, cells were exposed to damage (MPP+ iodide 1 mM) for 24 h. Cells treated with MPP+ iodide alone were included as Control. Untreated cells were included as negative control. Cells treated with Deprenyl served as positive control. After treatment, cells were harvested by trypsinization and processed for Annexin V assay as follows: Cell were gently harvested into pre-labelled sterile centrifuge tubes and centrifuged at 300×g for 5-7 min. Supernatant were discarded and the pellet was resuspended in 200 μl of fresh culture medium. 100 μl of cell suspension was transferred into pre-labeled sterile centrifuge tubes. 100 μl of Annexin-V reagent was added to each tube and incubated for 30 min at RT in dark. Cells stained for Annexin-V were then transferred into 96-well plates and acquired on flow cytometer (Guava technologies). Percentage of Annexin-V positive cells was determined.
# Percent inhibition in apoptotic cells=[(% Annexin positive cells in MPP+iodide alone)−(% Annexin positive cells in Recombinant Lectin having SEQ ID NO:1+MPP+iodide)/% Annexin positive cells in MPP+iodide alone]*100
# ICAM1/CD54 = test: Parkinson biomarker multiplex analysis/ELISA, MPP+ damaged SH-SY5Y; settings: MPP + Iodide (2 mM)
# Procedure: (§1) After overnight incubation as in the previous examples, cells were treated with recombinant lectin protein having SEQ ID NO: 1 at different concentrations ranging from 0.001 μg/ml-1 μg/ml for 24 h for Parkinson disease and 0.01 μg/ml-25 μg/ml for 24 h for Alzheimer's disease. • Parkinson Disease: After 24 h of pre-treatment with recombinant lectin protein having SEQ ID NO: 1, cells were exposed (MPP+) for another 24 h. Cells treated with MPP+Iodide were included as Control. […] The cells treated with Galantamine were included as positive Control.
# (§2) The levels of markers were determined by multiplex analysis as: Cell culture supernatants were diluted (1:2) with Calibrator Diluent. 50 μl of standard or sample was added per well. 50 μl of the microparticle cocktail was added to each well of the microplate and covered with a foil plate sealer. The plate was incubated for 2 hours at room temperature on a horizontal orbital microplate shaker. The plate was washed using a magnetic device designed to accommodate a microplate. Washing was done by applying the magnet to the bottom of the microplate, allowing 1 minute before removing the liquid, filling each well with wash buffer (100 μl) and allowing 1 minute before removing the liquid again. 50 μl of diluted Biotin-Antibody Cocktail was added to each well. Covered the plate with a foil plate sealer and incubated for 1 hour at room temperature on the shaker. Repeated the wash step. 50 μl of diluted Streptavidin-PE was added to each well. The plate was securely covered with a foil plate sealer and incubated for 30 minutes at room temperature on the shaker. Repeated the wash step. The microparticles were resuspended by adding 100 μl of Wash Buffer to each well. The plate was incubated for 2 minutes on the shaker and read within 90 minutes using Magpix® multiplex machine. Levels of biomarkers for Parkinson's and Alzheimer's disease were estimated using Magpix® multiplex machine.
# (§3) For Parkinson's the percent modulation in each sample was determined as follows:
# (§4) [{Concentration of biomarkers(pg/ml) in SEQ ID NO:1+MPP+Iodide treated cells)−Concentration of biomarkers(pg/ml) in Control cells(MPP+Iodide alone treated)}/Concentration of biomarkers(pg/ml) in Control cells(MPP+Iodide alone treated)]*100
# Park7/DJ-1 = test: as above; settings: MPP + Iodide (2 mM)
# Procedure: as §1, §2, §3, §4
# Dopamine = test: as above; settings: MPP + Iodide (2 mM)
# Procedure: as §1, §2, §3, §4
# Serotonin = test: as above; settings: MPP + Iodide (2 mM)
# Procedure: as §1, §2, §3, §4
# S100b = test: as above; settings: MPP + Iodide (2 mM)
# Procedure: as §1, §2, §3, §4
# Calbindin D = test: as above; settings: MPP + Iodide (2 mM)
# Procedure: as §1, §2, §3, §4
structure (smiles),measurement,setting,value
"C#CCN(C)[C@H](C)Cc1ccccc1 [Deprenyl, reference compound]",% Apoptotic cells (Anenxin + ve),SH-SY5Y neuronal cells; 10 μM,3%
same,% Decrease in Apoptotic cells (wrt MPP + iodide),SH-SY5Y neuronal cells; 10 μM,27.2%
same,% Apoptotic cells (Anenxin + ve),SH-SY5Y neuronal cells; 25 μM,2.5%
same,% Decrease in Apoptotic cells (wrt MPP + iodide),SH-SY5Y neuronal cells; 25 μM,38.3%
same,% Apoptotic cells (Anenxin + ve),SH-SY5Y neuronal cells; 100 μM,2.9%
same,% Decrease in Apoptotic cells (wrt MPP + iodide),SH-SY5Y neuronal cells; 100 μM,28.4%
same,% Change of Biomarkers markers (with respect to Control) ICAM1/CD54,ICAM1/CD54; 10 μM,12.9%
same,% Change of Biomarkers markers (with respect to Control) ICAM1/CD54,ICAM1/CD54; 50 μM,−23.7%
same,% Change of Biomarkers markers (with respect to Control) ICAM1/CD54,ICAM1/CD54; 100 μM,−37%
same,% Change of Biomarkers markers (with respect to Control) Park7/DJ-1,Park7/DJ-1; 10 μM,−6.8%
same,% Change of Biomarkers markers (with respect to Control) Park7/DJ-1,Park7/DJ-1; 50 μM,−7.9%
same,% Change of Biomarkers markers (with respect to Control) Park7/DJ-1,Park7/DJ-1; 100 μM,−9.2%
same,% Change of Biomarkers markers (with respect to Control) Dopamine,Dopamine; 10 μM,21.2%
same,% Change of Biomarkers markers (with respect to Control) Dopamine,Dopamine; 50 μM,37.7%
same,% Change of Biomarkers markers (with respect to Control) Dopamine,Dopamine; 100 μM,−47.2%
same,% Change of Biomarkers markers (with respect to Control) Serotonin,Serotonin; 10 μM,9.1%
same,% Change of Biomarkers markers (with respect to Control) Serotonin,Serotonin; 50 μM,33%
same,% Change of Biomarkers markers (with respect to Control) Serotonin,Serotonin; 100 μM,17.1%
same,% Change of Biomarkers markers (with respect to Control) S100b,S100b; 10 μM,−6.7%
same,% Change of Biomarkers markers (with respect to Control) S100b,S100b; 50 μM,−6.5%
same,% Change of Biomarkers markers (with respect to Control) S100b,S100b; 100 μM,−6.5%
same,% Change of Biomarkers markers (with respect to Control) Calbindin D,Calbindin D; 10 μM,5%
same,% Change of Biomarkers markers (with respect to Control) Calbindin D,Calbindin D; 50 μM,0%
same,% Change of Biomarkers markers (with respect to Control) Calbindin D,Calbindin D; 100 μM,3.3%
